This is an account of results in paper PMC8617627, “Novel DYRK1A Inhibitor Rescues Learning and Memory Deficits in a Mouse Model of Down Syndrome” (Pharmaceuticals, 2021).

Read-outs that look alike come from different tables or passages of the source.

Assay in all cases: Kinase profile (33P ATP filter binding)
Assay type in all cases: biochemical

The target of one test is T1, BRSK2 (Homo sapiens, UniProt Q8IWQ3).
T1 sequence (Q8IWQ3 1-736): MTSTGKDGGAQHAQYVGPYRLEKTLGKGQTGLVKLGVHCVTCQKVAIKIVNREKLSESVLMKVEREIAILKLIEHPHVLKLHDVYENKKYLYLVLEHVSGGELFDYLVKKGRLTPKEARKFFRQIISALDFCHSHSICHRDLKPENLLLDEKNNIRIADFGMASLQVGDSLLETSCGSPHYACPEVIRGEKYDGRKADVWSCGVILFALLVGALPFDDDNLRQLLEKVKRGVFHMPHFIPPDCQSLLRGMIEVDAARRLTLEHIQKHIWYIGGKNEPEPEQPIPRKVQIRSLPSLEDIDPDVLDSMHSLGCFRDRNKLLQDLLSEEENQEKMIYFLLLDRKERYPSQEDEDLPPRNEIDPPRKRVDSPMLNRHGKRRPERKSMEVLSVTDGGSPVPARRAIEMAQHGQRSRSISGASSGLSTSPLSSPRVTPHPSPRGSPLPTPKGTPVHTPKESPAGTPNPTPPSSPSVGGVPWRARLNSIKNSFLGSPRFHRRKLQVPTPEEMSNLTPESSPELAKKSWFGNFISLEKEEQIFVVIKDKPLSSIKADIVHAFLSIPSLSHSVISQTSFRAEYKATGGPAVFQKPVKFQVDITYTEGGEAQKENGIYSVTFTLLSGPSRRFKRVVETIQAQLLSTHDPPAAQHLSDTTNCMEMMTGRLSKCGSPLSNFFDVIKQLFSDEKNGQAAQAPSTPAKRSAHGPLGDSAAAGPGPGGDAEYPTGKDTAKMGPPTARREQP
Conditions: read-out: Remaining protein kinase activity.

The target of the next test is T2, EIF2AK3 (Homo sapiens, UniProt Q9NZJ5).
T2 sequence (Q9NZJ5 30-1116): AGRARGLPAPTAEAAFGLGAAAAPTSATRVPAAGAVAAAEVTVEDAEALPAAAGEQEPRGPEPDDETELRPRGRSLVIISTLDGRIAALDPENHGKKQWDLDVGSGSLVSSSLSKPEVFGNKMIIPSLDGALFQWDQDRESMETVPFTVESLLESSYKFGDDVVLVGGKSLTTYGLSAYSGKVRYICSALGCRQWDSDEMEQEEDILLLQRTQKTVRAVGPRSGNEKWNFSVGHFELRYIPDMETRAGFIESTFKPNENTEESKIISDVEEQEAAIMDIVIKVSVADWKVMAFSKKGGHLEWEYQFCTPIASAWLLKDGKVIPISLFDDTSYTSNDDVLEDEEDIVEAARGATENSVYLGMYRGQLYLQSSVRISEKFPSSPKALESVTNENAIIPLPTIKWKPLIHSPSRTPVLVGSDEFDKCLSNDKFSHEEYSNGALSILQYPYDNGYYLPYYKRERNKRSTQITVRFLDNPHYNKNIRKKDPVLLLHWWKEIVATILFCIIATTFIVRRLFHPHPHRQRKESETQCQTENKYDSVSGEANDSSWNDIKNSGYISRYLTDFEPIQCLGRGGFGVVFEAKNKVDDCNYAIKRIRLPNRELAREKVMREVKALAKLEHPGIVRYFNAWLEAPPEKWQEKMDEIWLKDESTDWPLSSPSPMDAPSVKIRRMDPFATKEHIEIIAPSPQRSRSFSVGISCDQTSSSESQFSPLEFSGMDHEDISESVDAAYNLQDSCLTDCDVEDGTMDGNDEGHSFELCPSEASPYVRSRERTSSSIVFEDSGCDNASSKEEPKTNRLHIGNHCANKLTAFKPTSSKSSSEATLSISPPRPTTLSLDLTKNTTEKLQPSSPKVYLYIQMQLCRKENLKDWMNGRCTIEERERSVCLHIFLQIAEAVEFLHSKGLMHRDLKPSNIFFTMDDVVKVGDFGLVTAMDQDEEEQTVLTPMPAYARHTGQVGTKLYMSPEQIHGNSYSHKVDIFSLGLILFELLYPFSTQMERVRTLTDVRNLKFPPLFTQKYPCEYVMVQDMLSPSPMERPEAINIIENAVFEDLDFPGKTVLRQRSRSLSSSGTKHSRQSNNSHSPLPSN
Conditions: read-out: Remaining protein kinase activity.

A further test addresses T3, MARK4 (Homo sapiens, UniProt Q96L34).
T3 sequence (Q96L34 1-752): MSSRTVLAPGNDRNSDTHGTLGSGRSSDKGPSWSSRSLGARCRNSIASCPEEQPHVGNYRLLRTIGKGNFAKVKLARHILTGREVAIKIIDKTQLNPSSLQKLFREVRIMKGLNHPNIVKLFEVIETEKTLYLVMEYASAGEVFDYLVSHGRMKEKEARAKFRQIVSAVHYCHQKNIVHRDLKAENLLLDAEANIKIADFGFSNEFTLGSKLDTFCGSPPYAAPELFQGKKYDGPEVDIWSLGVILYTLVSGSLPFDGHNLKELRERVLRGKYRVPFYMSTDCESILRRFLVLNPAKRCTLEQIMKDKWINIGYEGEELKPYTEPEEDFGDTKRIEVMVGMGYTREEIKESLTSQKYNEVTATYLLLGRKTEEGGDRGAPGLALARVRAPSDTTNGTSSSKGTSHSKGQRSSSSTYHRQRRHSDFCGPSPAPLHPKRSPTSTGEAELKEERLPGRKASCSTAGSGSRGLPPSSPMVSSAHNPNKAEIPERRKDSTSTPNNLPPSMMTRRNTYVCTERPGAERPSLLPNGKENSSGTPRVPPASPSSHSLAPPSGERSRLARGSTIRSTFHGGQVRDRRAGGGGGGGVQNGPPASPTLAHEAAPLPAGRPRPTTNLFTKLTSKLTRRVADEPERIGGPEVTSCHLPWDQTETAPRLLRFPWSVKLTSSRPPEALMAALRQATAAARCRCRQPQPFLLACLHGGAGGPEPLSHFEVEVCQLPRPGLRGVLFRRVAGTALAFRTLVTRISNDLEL

As usually defined, the remaining activity is the signal under treatment as a percentage of the control signal. For `COc1ccc2sc(-c3cncc(N)c3)nc2c1` [compound 1, 5-(5-Methoxybenzo[d]thiazol-2-yl)pyridin-3-amine], the remaining activity at 1 µM on BRSK2 (BRSK2, 1 μM) turned out to be 125%; on EIF2AK3 (EIF2AK3, 1 μM) it was 122%. Moreover, the remaining activity at 100 µM worked out at 53% at BRSK2 (BRSK2, 100 μM) and 84% at EIF2AK3 (EIF2AK3, 100 μM). The figures for the “Remaining protein kinase activity” value on MARK4 (1 μM) and at MARK4 (100 μM) were 131% and 58%, respectively.
Regarding `COc1ccc2sc(-c3cncc(NC(C)=O)c3)nc2c1` [PST-001, N-(5-(5-Methoxybenzo[d]thiazol-2-yl)pyridin-3-yl)acetamide], the values for the remaining activity at 1 µM on BRSK2 and on EIF2AK3 were 128% and 123%, respectively. For the same molecule, the remaining activity at 100 µM stood at 125% at BRSK2 and 118% at EIF2AK3. Moreover, the results for the “Remaining protein kinase activity” value at MARK4 (1 μM) and on MARK4 (100 μM) were 121% and 103%, respectively.
